Measured values as given in patent publication US12122780B2, “Pyrimidinyl group-containing tricyclic compound serving as c-Met inhibitor” (JIANGSU AOSAIKANG PHARMACEUTICAL CO., LTD., priority 2019, dated 2024).
Structures can show the parent of a compound that is named as a salt.

What was measured:
[1] = test system: human gastric cancer Hs746T xenograft tumor; assay: In vivo drug efficacy, human gastric cancer Hs746T xenograft tumor in nude mice; design: species or system BALB/c nude mice; conditions: for TGI (tumor growth inhibition rate) / TRTV/CRTV (relative tumor proliferation rate T/C): after 20 days; for Tumor volume: n = 6
Protocol: BALB/c nude mice, female, 6-8 weeks old, weighing about 18-22 grams, animals were raised in SPF-class animal rooms in IVC (independent air supply system, constant temperature and humidity) cages (3 per cage). All cages, bedding and water were disinfected before use. All animals had free access to standard certified commercial laboratory diets. 0.2 mL (5×10^6 cells) of Hs746T cell suspension (with matrix gel, volume ratio 1:1) was subcutaneously inoculated on the right back of each mouse, and a total of 55 mice were inoculated. When the average tumor volume reached 160 mm^3, a random stratified grouping method was adopted according to the tumor volume and animal body weight to start grouping administration. The test compound was orally administered daily, the two doses of hydrochloride of compound 25 were 3 mg/kg and 6 mg/kg, respectively, and the dose of hydrochloride of compound 39 was 3 mg/kg. The tumor diameter was measured with vernier calipers twice a week. The calculation formula of tumor volume was: V=0.5a×b^2, a and b represented the long diameter and short diameter of the tumor, respectively. The anti-tumor efficacy of the compound was evaluated by TGI (%) or the relative tumor proliferation rate T/C (%). Relative tumor proliferation rate T/C (%)=TRTV/CRTV×100% (TRTV: average RTV in the treatment group; CRTV: average RTV in the negative control group). The relative tumor volume (RTV) was calculated according to the results of tumor measurement, the calculation formula was RTV=Vt/V0, wherein V0 was the tumor volume measured at the time of the grouping administration (i.e. D0), Vt was the tumor volume of the mice at a certain measurement, and TRTV and CRTV were taken on the same day. TGI (%) reflected the tumor growth inhibition rate. TGI (%)=[(1−(average tumor volume of a certain treatment group after administration-average tumor volume of the treatment group at the beginning of administration))/(average tumor volume of the solvent control group after the administration-average tumor volume of the solvent control group at the beginning of the administration)]×100%. Statistical analysis was performed based on the tumor volume (RTV) on the 20th day, and SPSS software was used for analysis.

[2] = Pharmacokinetics of single intravenous and oral administration in dogs; type: in vivo; conditions: for Vd / clearance / half-life / bioavailability: dog, plasma; for Vd / clearance / half-life / Exposure AUC: intravenous injection, 1 mg/kg; for Vd: read-out: Apparent volume of distribution; for clearance: read-out: Clearance rate; for half-life: read-out: Half-life (T1/2) (converted); for bioavailability / Exposure AUC0-last / Maximum blood concentration / Peak time: oral administration, 5 mg/kg
Protocol: (§1) The objective of this experiment was to study the pharmacokinetics (PK) of the test compound in different species after a single intravenous and a single oral administration.
(§2) After intravenous injection or oral administration, animal blood samples were collected and the actual blood collection time was recorded. Immediately after collection, blood samples were transferred to labeled centrifuge tubes containing K2-EDTA and subsequently centrifuged and processed to obtain plasma. Plasma was transferred to pre-cooled centrifuge tubes, snap-frozen in dry ice and stored in an ultra-low temperature refrigerator at −70±10° C. until LC-MS was performed.
(§3) Plasma drug concentration data of the compounds were processed using pharmacokinetic software with a non-compartmental model. The peak concentration (Cmax) and time to peak (Tmax), as well as the quantifiable end time, were obtained directly from the blood concentration-time diagram. The log-linear trapezoidal method was used to calculate the following pharmacokinetic parameters: half-life (T1/2), apparent volume of distribution (Vdss) and clearance rate (Cl), and the area under the time-plasma concentration curve from 0 points to the end time (AUC0-last), the initial concentration (C0).

[3] = Pharmacokinetics of single intravenous and oral administration in mice; type: in vivo; conditions: for Exposure AUC / Vd / clearance / half-life: intravenous injection, 1 mg/kg; for Vd / clearance / half-life / bioavailability: mouse, plasma; for Vd: read-out: Apparent volume of distribution; for clearance: read-out: Clearance rate; for half-life: read-out: Half-life (T1/2) (converted); for bioavailability / Exposure AUC0-last / Maximum blood concentration / Peak time: oral administration, 10 mg/kg
Protocol: as §1, §2, §3

[4] = test system: EBC-1 cells; assay: EBC-1 cell proliferation experiment (CellTiter-Glo); type: cell-based, human; conditions: Homo sapiens, EBC-1, 72 h, 3 days
Protocol: MEM medium, fetal bovine serum, penicillin/streptomycin antibiotics were purchased from Wisent. EBC-1 cell line was purchased from Nanjing COBIO Bioscience Co., LTD. Envision multi-label analyzer (PerkinElmer).
EBC-1 cells were seeded in a white 96-well plate, […] cell suspension per well, which contained 3000 EBC-1 cells. The cell plate was placed in a carbon dioxide incubator for overnight culture.
The compound to be tested was diluted 5-fold to the eighth concentration with a discharge gun, i.e., from 2 mM to […], and double duplicate wells experiment was set. 78 μL of the medium was added to the middle plate, then 2 μL per well of gradient diluted compound was transferred to the corresponding position on the middle plate, then mixed well and 20 μL per well was transferred to the cell plate. The cell plate was cultured in a carbon dioxide incubator for 3 days. Another cell plate was prepared and the signal values were read on the day of dosing as […] to be used in the data analysis. 25 μL of Promega CellTiter-Glo was added to each well of this cell plate, and incubated at room temperature for 10 minutes to stabilize the luminescence signal. Readings were taken using a PerkinElmer Envision multi-label analyzer.
25 μL of Promega CellTiter-Glo reagent was added to each well of this cell plate, and incubated at room temperature for 10 minutes to stabilize the luminescence signal. Readings were taken using a PerkinElmer Envision multi-label analyzer.
Using the equation (Sample-Min)/(Max-Min)*100% to convert the original data to the inhibition rate, the IC50 value can be obtained by curve fitting with four parameters (obtained by “log(inhibitor) vs. response in GraphPad Prism—Variable slope mode).

[5] = 3 mg/kg oral daily, day 0, mean ± standard error
[6] = 3 mg/kg oral daily, day 2, mean ± standard error
[7] = 3 mg/kg oral daily, day 5, mean ± standard error
[8] = 3 mg/kg oral daily, day 9, mean ± standard error
[9] = 3 mg/kg oral daily, day 12, mean ± standard error
[10] = 3 mg/kg oral daily, day 16, mean ± standard error
[11] = 3 mg/kg oral daily, day 19, mean ± standard error
[12] = 3 mg/kg oral daily, day 20, mean ± standard error

Structure (SMILES) | TGI (tumor growth inhibition rate) ([1]; 3 mg/kg oral daily) | TRTV/CRTV (relative tumor proliferation rate T/C) ([1]; 3 mg/kg oral daily) | Tumor volume [1, 5] | Tumor volume [1, 6] | Tumor volume [1, 7] | Tumor volume [1, 8] | Tumor volume [1, 9] | Tumor volume [1, 10] | Tumor volume [1, 11] | Tumor volume [1, 12] | Vd [2] | clearance [2] | half-life [2] | bioavailability [2] | Exposure AUC [2] | Exposure AUC0-last [2] | Maximum blood concentration [2] | Peak time [2] | Exposure AUC [3] | Vd [3] | other results
CC(C)N1CCC(COc2cnc(-c3cccc(Cn4c(=O)ccn5c6cc(C#N)ccc6nc45)c3)nc2)CC1 [Hydrochloride of compound 25] | 96.6% | 10.2% | 160 ± 7 mm^3 | 179 ± 8 mm^3 | 173 ± 12 mm^3 | 151 ± 7 mm^3 | 144 ± 6 mm^3 | 139 ± 20 mm^3 | 221 ± 49 mm^3 | 234 ± 79 mm^3 | 14.4 L/kg | 24.2 mL/min/kg | 7.87 h | 57.7% | 1.23 µM·h | 3.54 µM·h | 246 nM | 4 h | 2.08 µM·h | 5.41 L/kg | Tumor volume ([1]; 3 mg/kg oral daily, day 20, mean ± standard error, listed as hydrochloride of compound 25): 234 mm^3; TGI (tumor growth inhibition rate) ([1]; 6 mg/kg oral daily): 106.7%; TRTV/CRTV (relative tumor proliferation rate T/C) ([1]; 6 mg/kg oral daily): 0.7%; Tumor volume ([1]; 6 mg/kg oral daily, day 0, mean ± standard error): 160 ± 7 mm^3; Tumor volume ([1]; 6 mg/kg oral daily, day 2, mean ± standard error): 146 ± 6 mm^3; Tumor volume ([1]; 6 mg/kg oral daily, day 5, mean ± standard error): 118 ± 6 mm^3; Tumor volume ([1]; 6 mg/kg oral daily, day 9, mean ± standard error): 89 ± 9 mm^3; Tumor volume ([1]; 6 mg/kg oral daily, day 12, mean ± standard error): 83 ± 9 mm^3; Tumor volume ([1]; 6 mg/kg oral daily, day 16, mean ± standard error): 55 ± 6 mm^3; Tumor volume ([1]; 6 mg/kg oral daily, day 19, mean ± standard error): 30 ± 4 mm^3; Tumor volume ([1]; 6 mg/kg oral daily, day 20, mean ± standard error): 17 ± 4 mm^3; Tumor volume ([1]; 6 mg/kg oral daily, day 20, mean ± standard error, listed as hydrochloride of compound 25): 17 mm^3; clearance [3]: 14.7 mL/min/kg; half-life [3]: 4.51 h; bioavailability [3]: 27%; Exposure AUC0-last [3]: 5.56 µM·h; Maximum blood concentration [3]: 541 nmol; Peak time [3]: 2.33 h; IC50 [4]: 1.87 nM
CC(C)(O)CN1CCC(COc2cnc(-c3cccc(Cn4c(=O)ccn5c6cc(C#N)ccc6nc45)c3)nc2)CC1 [Hydrochloride of compound 39] | 106.7% | 0.7% | 160 ± 6 mm^3 | 159 ± 8 mm^3 | 125 ± 4 mm^3 | 92 ± 3 mm^3 | 82 ± 5 mm^3 | 59 ± 7 mm^3 | 26 ± 4 mm^3 | 16 ± 3 mm^3 | 14.6 L/kg | 18.7 mL/min/kg | 9.47 h | 70.6% | 1.34 µM·h | 4.74 µM·h | 451 nM | 5 h | 1.8 µM·h | 7.27 L/kg | Tumor volume ([1]; 3 mg/kg oral daily, day 20, mean ± standard error, listed as hydrochloride of compound 39): 16 mm^3; clearance [3]: 15.8 mL/min/kg; half-life [3]: 6.73 h; bioavailability [3]: 82.3%; Exposure AUC0-last [3]: 14.9 µM·h; Maximum blood concentration [3]: 1070 nmol; Peak time [3]: 4 h; IC50 [4]: 4.81 nM
